Publication PMC8348110, “A Novel Peptide Derived from the Transmembrane Domain of Romo1 Is a Promising Candidate for Sepsis Treatment and Multidrug-Resistant Bacteria” (International Journal of Molecular Sciences, 2021)
In brackets after ≈: the same amount, converted by molar mass. Residues, ends and D or L forms follow the SMILES beside them.

Columns and labels:
[1] = tested on: Carbapenem-resistant P. aeruginosa (CRPA), clinical isolate; assay type: cell-based, Pseudomonas aeruginosa; settings: 1 h
Text: Acinetobacter baumannii (ATCC 19606), B. subtilis (ATCC 6633), E. aerogenes (ATCC 13048), E. coli (ATCC 25922), E. faecalis (ATCC 19433), E. faecium (ATCC 19434), K. pneumoniae (ATCC 13883), P. aeruginosa (ATCC 27853), S. aureus (ATCC 29213), S. sindenensis (ATCC 23963), and MRSA (ATCC 33591) were purchased from the American Type Culture Collection (ATCC; Gaithersburg, MD, USA). Streptococcus pneumoniae (NCCP 14585), vancomycin-resistant E. faecium (NCCP 11522), and vancomycin-resistant S. aureus (NCCP 15872) were purchased from the National Culture Collection for Pathogens (NCCP; Cheongju, Korea). The isolation and use of carbapenem-resistant bacterial strains from a patient were approved (2015AN0129) by the Institutional Review Board (IRB) of Korea University Hospital. CRPA, CRKP, and CRAB were clinically isolated in Korea University Hospital (Seoul, Korea). CRPA was confirmed to be resistant to piperacillin, piperacillin-tazobactam, ceftazidime, imipenem, meropenem, gentamicin, amikacin, and ciprofloxacin. CRAB was confirmed to be resistant to piperacillin, piperacillin-tazobactam, cefepime, ceftazidime, imipenem, meropenem, gentamicin, amikacin, and ciprofloxacin. CRKP was confirmed to be resistant to piperacillin-tazobactam, cefepime, ceftazidime, imipenem, gentamicin, and ciprofloxacin. All strains were stored at –80 °C in 50% glycerol and 50% Luria-Bertani (LB) or tryptic soy (TS) broth, grown on LB or TS plates, and aerated at 37 °C.
(§1) The minimum bactericidal concentration (MBC) was determined as previously described with minor modifications. Briefly, bacteria were cultured in the mid-log phase and diluted to 5 × 10^5 colony-forming unit (CFU)/mL in 10 mM sodium phosphate buffer (pH 7.4) with a 1% volume of TS broth. They were incubated for 1 h with various peptides which were two-fold diluted serially from 64 μg/mL to 0 μg/mL concentrations in a 96-well plate. The samples were inoculated TS agar plate and incubated overnight at 37 °C. The value of MBC was determined at the lowest concentrations at which no colonies were identified.
(§2) We used the CFU counting method to measure antibacterial activity, with all bacteria cultured to the mid-log phase in an appropriate broth medium. Bacterial CFUs were counted after overnight culture at 37 °C on TS or LB agar plates. The MBC value and antibacterial activity in blood components were determined as previously described. Mouse and human whole blood were collected and diluted with PBS (pH 7.4) to measure the ex vivo antibacterial activity of AMPR-22. For that test, AMPR-22 (10 μg) was added to each whole blood solution and incubated at 37 °C with shaking at 200 rpm. At each time point, it was incubated with bacteria (1 × 10^3 CFU) for 30 min. Each sample was inoculated on an LB agar plate, and CFU counting was performed. To measure the in vivo activity of AMPR-22, 1 × 10^8 CFU of bacteria were injected into BALB/c mice, and an hour later, 10 mg/kg of the test peptides were injected. Blood samples were collected by tail cut, serially diluted with PBS (pH 7.4), and inoculated on LB-agar plates, followed by CFU counting. To estimate the functional half-life of AMPR-22, 40 mg/kg of each tested peptide were injected into mice. Whole blood sampling was performed by cardiac puncture, and the plasma was isolated by centrifugation (2000× g, 15 min). The isolated plasma was incubated with bacteria (1 × 10^3 CFU) for an hour, and then the CFU counting method was performed.

[2] = tested on: Staphylococcus aureus ATCC 29213; assay type: cell-based; settings: ATCC 29213, 1 h, pH 7.4
Experimental: as §1, §2

[3] = tested on: Pseudomonas aeruginosa ATCC 27853; assay type: cell-based; settings: ATCC 27853, 1 h
Experimental: as §1, §2

[4] = tested on: Methicillin-resistant S. aureus (MRSA) ATCC 33591; assay type: cell-based, Staphylococcus aureus; settings: ATCC 33591, 1 h
Experimental: as §1, §2

| Structure (SMILES) | MBC Value, CRPA [1] | MBC Value, S. aureus [2] | MBC Value, P. aeruginosa [3] | MBC Value, MRSA [4] |
| --- | --- | --- | --- | --- |
| CC[C@H](C)[C@H](NC(=O)CNC(=O)[C@H](CCSC)NC(=O)CNC(=O)[C@@H](NC(=O)[C@H](C)NC(=O)[C@H](CCSC)NC(=O)[C@H](Cc1ccccc1)NC(=O)[C@@H](NC(=O)CNC(=O)[C@H](Cc1ccccc1)NC(=O)CNC(=O)CNC(=O)[C@H](CCCCN)NC(=O)[C@H](CCCCN)NC(=O)[C@H](CCSC)NC(=O)[C@H](CCSC)NC(=O)[C@H](CCCCN)NC(=O)[C@@H](N)CCCCN)[C@@H](C)O)[C@@H](C)CC)C(=O)N[C@@H](CCCNC(=N)N)C(=O)O [d66K] (H-KKMMKKGGFGTFMAIGMGIR-OH) | 4 µg/mL (≈ 1.83 µM) | 8 µg/mL (≈ 3.65 µM) | 4 µg/mL (≈ 1.83 µM) | 4 µg/mL (≈ 1.83 µM) |
| CC[C@H](C)[C@H](NC(=O)[C@H](C)NC(=O)[C@H](CCSC)NC(=O)[C@H](Cc1ccccc1)NC(=O)[C@@H](NC(=O)CNC(=O)[C@H](Cc1ccccc1)NC(=O)[C@H](CCCCN)NC(=O)CNC(=O)CNC(=O)[C@H](CCCCN)NC(=O)[C@H](CCCCN)NC(=O)[C@H](CCSC)NC(=O)[C@H](CCSC)NC(=O)[C@H](CCCCN)NC(=O)[C@@H](N)CCCCN)[C@@H](C)O)C(=O)NCC(=O)N[C@@H](CCSC)C(=O)N[C@H](C(=O)N[C@@H](CCCNC(=N)N)C(=O)O)[C@@H](C)CC [d76G] (H-KKMMKKGGKFGTFMAIGMIR-OH) | 4 µg/mL (≈ 1.77 µM) | 4 µg/mL (≈ 1.77 µM) | 4 µg/mL (≈ 1.77 µM) | 4 µg/mL (≈ 1.77 µM) |
| CC[C@H](C)[C@H](NC(=O)CNC(=O)[C@H](CCSC)NC(=O)CNC(=O)[C@@H](NC(=O)[C@H](CCSC)NC(=O)[C@H](Cc1ccccc1)NC(=O)[C@@H](NC(=O)CNC(=O)[C@H](Cc1ccccc1)NC(=O)[C@H](CCCCN)NC(=O)CNC(=O)CNC(=O)[C@H](CCCCN)NC(=O)[C@H](CCCCN)NC(=O)[C@H](CCSC)NC(=O)[C@H](CCSC)NC(=O)[C@H](CCCCN)NC(=O)[C@@H](N)CCCCN)[C@@H](C)O)[C@@H](C)CC)C(=O)N[C@@H](CCCNC(=N)N)C(=O)O [d72A] (H-KKMMKKGGKFGTFMIGMGIR-OH) | 4 µg/mL (≈ 1.78 µM) | 2 µg/mL (≈ 0.89 µM) | 2 µg/mL (≈ 0.89 µM) | 2 µg/mL (≈ 0.89 µM) |
| CC[C@H](C)[C@H](NC(=O)CNC(=O)[C@H](CCSC)NC(=O)CNC(=O)[C@@H](NC(=O)[C@H](C)NC(=O)[C@H](CCSC)NC(=O)[C@H](Cc1ccccc1)NC(=O)[C@@H](NC(=O)CNC(=O)[C@H](Cc1ccccc1)NC(=O)[C@H](CCCCN)NC(=O)CNC(=O)CNC(=O)[C@H](CCCCN)NC(=O)[C@H](CCCCN)NC(=O)[C@H](CCSC)NC(=O)[C@H](CCSC)NC(=O)[C@H](CCCCN)NC(=O)[C@@H](N)CCCCN)[C@@H](C)O)[C@@H](C)CC)C(=O)O [d78R] (H-KKMMKKGGKFGTFMAIGMGI-OH) | 16 µg/mL (≈ 7.4 µM) | 16 µg/mL (≈ 7.4 µM) | 4 µg/mL (≈ 1.85 µM) | 4 µg/mL (≈ 1.85 µM) |
| CC[C@H](C)[C@H](NC(=O)CNC(=O)[C@H](CCSC)NC(=O)CNC(=O)[C@@H](NC(=O)[C@H](C)NC(=O)[C@H](CCSC)NC(=O)[C@H](Cc1ccccc1)NC(=O)[C@@H](NC(=O)CNC(=O)[C@H](CCCCN)NC(=O)CNC(=O)CNC(=O)[C@H](CCCCN)NC(=O)[C@H](CCCCN)NC(=O)[C@H](CCSC)NC(=O)[C@H](CCSC)NC(=O)[C@H](CCCCN)NC(=O)[C@@H](N)CCCCN)[C@@H](C)O)[C@@H](C)CC)C(=O)N[C@@H](CCCNC(=N)N)C(=O)O [d67F] (H-KKMMKKGGKGTFMAIGMGIR-OH) | 8 µg/mL (≈ 3.69 µM) | 8 µg/mL (≈ 3.69 µM) | 4 µg/mL (≈ 1.84 µM) | 4 µg/mL (≈ 1.84 µM) |
| CC[C@H](C)[C@H](NC(=O)CNC(=O)[C@H](CCSC)NC(=O)CNC(=O)[C@@H](NC(=O)[C@H](C)NC(=O)[C@H](Cc1ccccc1)NC(=O)[C@@H](NC(=O)CNC(=O)[C@H](Cc1ccccc1)NC(=O)[C@H](CCCCN)NC(=O)CNC(=O)CNC(=O)[C@H](CCCCN)NC(=O)[C@H](CCCCN)NC(=O)[C@H](CCSC)NC(=O)[C@H](CCSC)NC(=O)[C@H](CCCCN)NC(=O)[C@@H](N)CCCCN)[C@@H](C)O)[C@@H](C)CC)C(=O)N[C@@H](CCCNC(=N)N)C(=O)O [d71M] (H-KKMMKKGGKFGTFAIGMGIR-OH) | 8 µg/mL | 4 µg/mL | 2 µg/mL | 4 µg/mL |
| CC[C@H](C)[C@H](NC(=O)[C@H](C)NC(=O)[C@H](CCSC)NC(=O)[C@H](Cc1ccccc1)NC(=O)[C@@H](NC(=O)CNC(=O)[C@H](Cc1ccccc1)NC(=O)[C@H](CCCCN)NC(=O)CNC(=O)CNC(=O)[C@H](CCCCN)NC(=O)[C@H](CCCCN)NC(=O)[C@H](CCSC)NC(=O)[C@H](CCSC)NC(=O)[C@H](CCCCN)NC(=O)[C@@H](N)CCCCN)[C@@H](C)O)C(=O)NCC(=O)N[C@@H](CCSC)C(=O)NCC(=O)N[C@@H](CCCNC(=N)N)C(=O)O [d77I] (H-KKMMKKGGKFGTFMAIGMGR-OH) | 8 µg/mL (≈ 3.63 µM) | 8 µg/mL (≈ 3.63 µM) | 4 µg/mL (≈ 1.81 µM) | 4 µg/mL (≈ 1.81 µM) |
| CC[C@H](C)[C@H](NC(=O)CNC(=O)[C@H](CCSC)NC(=O)CNC(=O)[C@@H](NC(=O)[C@H](C)NC(=O)[C@H](CCSC)NC(=O)[C@H](Cc1ccccc1)NC(=O)[C@@H](NC(=O)CNC(=O)[C@H](Cc1ccccc1)NC(=O)[C@H](CCCCN)NC(=O)CNC(=O)CNC(=O)[C@H](CCCCN)NC(=O)[C@H](CCCCN)NC(=O)[C@H](CCSC)NC(=O)[C@H](CCSC)NC(=O)[C@@H](N)CCCCN)[C@@H](C)O)[C@@H](C)CC)C(=O)N[C@@H](CCCNC(=N)N)C(=O)O [d58K] (H-KMMKKGGKFGTFMAIGMGIR-OH) | 8 µg/mL (≈ 3.65 µM) | 8 µg/mL (≈ 3.65 µM) | 2 µg/mL (≈ 0.913 µM) | 2 µg/mL (≈ 0.913 µM) |
